Data as given in patent publication US10538738B2, “Megakaryocytic particles and microparticles for cell therapy and fate modification of stem and progenitor cells” (priority 2014, dated 2020).
Residues, ends and D or L forms follow the SMILES beside them. *: point of attachment. Cbz = O=C(OCc1ccccc1)*; CH2F = FC*

How the values were obtained:
Mks [1] = assay: Shear-enhanced MkMP generation from Mks treated with caspase inhibitors; format: cell-based, human; conditions: d10 and d12 Mks, 10 μM inhibitor, shear flow 2.5 dyn/cm^2 for 0.5 hour
Procedure: Rectangular flow slides (μ-Slide 1^0.6 Luer, ibidi USA) were coated with 50 μg/mL vWF, and ca. 300,000 cultured Mks were seeded into each slide. Mks on slides were cultured overnight (21 hours) before being exposed to shear flow. Medium (IMDM supplemented with 10% BIT9500, 50 ng/mL TPO, 50 ng/mL rhSCF, 0.5 μg/mL hLDL and 6.25 mM nicotinamide) was perfused over Mks on slides by two syringe pumps (Dual NE-4000 pump; New Era Pump Systems) to achieve the desirable shear-stress level. For BrdU incorporation assays, the medium was supplemented with 10 μM BrdU (BD). During shear flow, some Mks were detached from the slide surface and released into the circulating medium. These are considered as non-adherent Mks. Adherent Mks were harvested for analysis using non-enzymatic cell dissociation buffer (Sigma-Aldrich). In some experiments, adherent Mks were fixed with 2% paraformaldehyde directly on slides and processed for immunofluorescence analysis. In some experiments, Mks were treated with caspase inhibitors, 10 μM z-VAD.fmk (Bachem) or 10 μM z-DEVD.fmk (Bachem) starting on d9. […]
For both static cultures and cultures exposed to shear flow, Mk cells were removed from the culture medium by centrifugation (150× g for 10 minutes). […] Concentrations of MkMPs (and of PMPs and Mks) were measured by flow cytometry using 1.34 μm microbeads (Sphero Tech) as standard. […]

Mks [2] = assay: Shear-flow PPT and PLP generation from Mks treated with caspase inhibitors; format: cell-based, human; conditions: 10 μM inhibitor, shear flow 2.5 dyn/cm^2 for 0.5 hour
Procedure: Rectangular flow slides (μ-Slide 1^0.6 Luer, ibidi USA) were coated with 50 μg/mL vWF, and ca. 300,000 cultured Mks were seeded into each slide. Mks on slides were cultured overnight (21 hours) before being exposed to shear flow. Medium (IMDM supplemented with 10% BIT9500, 50 ng/mL TPO, 50 ng/mL rhSCF, 0.5 μg/mL hLDL and 6.25 mM nicotinamide) was perfused over Mks on slides by two syringe pumps (Dual NE-4000 pump; New Era Pump Systems) to achieve the desirable shear-stress level. For BrdU incorporation assays, the medium was supplemented with 10 μM BrdU (BD). During shear flow, some Mks were detached from the slide surface and released into the circulating medium. These are considered as non-adherent Mks. Adherent Mks were harvested for analysis using non-enzymatic cell dissociation buffer (Sigma-Aldrich). In some experiments, adherent Mks were fixed with 2% paraformaldehyde directly on slides and processed for immunofluorescence analysis. In some experiments, Mks were treated with caspase inhibitors, 10 μM z-VAD.fmk (Bachem) or 10 μM z-DEVD.fmk (Bachem) starting on d9. Inhibitor-treated Mks were seeded into flow slides at d9 or d11, were exposed to shear flow (2.5 dyn/cm^2 for 0.5 hour) in medium supplemented with the same inhibitor, and were harvested for PPT, PLP and CD41^+ microparticle counting.
Large cells were excluded from PLP preparations by centrifugation at 150× g for 10 minutes. PLPs were then pelleted by centrifugation at 1000× g for 10 minutes from the PLP-enriched supernatant. After one wash, PLPs were resuspended in Tyrode's buffer and used in platelet-stimulation assays. The number of PLPs and PPTs per slide was measured using a Multisizer™ 3 Coulter Counter (Beckman Coulter).
It has been shown that activation of caspase-3 and 9 is required for PPT formation. Here we wanted to investigate if shear stress affects caspase-3 activation in Mks. We chose caspase-3 as a marker of late apoptosis to complement our Annexin V studies above, which pertain to early apoptotic events. First, we confirmed that caspase-3 in indeed activated during in vitro Mk maturation with our culture protocol. […] We also observed a correlation between the activation level of caspase-3 in Mks (represented as the ratio of MFI of active caspase-3 over isotype control) and PPT formation (FIG. 4C), which is consistent with previous studies discussed above. […] Exposure of Mks for 2 hours to 1 dyn/cm^2 enhanced caspase-3 activation both at d10 and d12 (FIG. 4D) by 1.7 to 5.6 fold depending on the donor and day. Since, as discussed, caspase-3 activation is necessary for PPT formation, one mechanism by which shear stress may promote PPT formation (see below) is by enhancing caspase-3 activation. To investigate this hypothesis, Mks were treated with 10 μM z-VAD.fmk (pan-caspase inhibitor) or z-DEVD.fmk (caspase-3 inhibitor) and were then exposed to shear flow. After flow application, PLPs (d=1-3 μm) and PPTs (d=3-10 μm) were harvested and counted. The effect of shear stress on particle generation was assessed using the ratio of PLP or PPT number from one slide of Mks under flow conditions over that under static conditions. […] However, at d12, both of z-VAD fmk and z-DEVD.fmk decreased both the PPT and PLP ratios (FIGS. 4E and 4F). […] At d12 when Mks produced more PPTs and stared to form a significant number of PLPs, the effect of shear on PPT and PLP generation was attenuated by caspase inhibitors.

| SMILES | Ratio of number of MkMPs under shear flow over static conditions (Mks [1]) | PLP ratio (PLP number under flow conditions over static conditions) (Mks [2]; d10 Mks) | PPT ratio (PPT number under flow conditions over static conditions) (Mks [2]; d10 Mks) | PLP ratio (PLP number under flow conditions over static conditions) (Mks [2]; d12 Mks) | PPT ratio (PPT number under flow conditions over static conditions) (Mks [2]; d12 Mks) |
| --- | --- | --- | --- | --- | --- |
| COC(=O)CC[C@H](NC(=O)[C@H](CC(=O)OC)NC(=O)OCc1ccccc1)C(=O)N[C@H](C(=O)N[C@@H](CC(=O)OC)C(=O)CF)C(C)C [z-DEVD.fmk] | attenuated the effect of shear stress | decreased only the PPT ratio | decreased | decreased | decreased |
| COC(=O)C[C@H](NC(=O)[C@H](C)NC(=O)[C@@H](NC(=O)OCc1ccccc1)C(C)C)C(=O)CF [z-VAD.fmk] (Cbz-Val-Ala-Asp(OMe)-CH2F) | only treatment with caspase-3 inhibitor (z-DEVD fmk) attenuated the effect of shear stress | no statistically significant effect | no statistically significant effect | decreased | decreased |
